{"source": "patent US20030113940A1", "about": "“Antibodies specific for nanotubes and related methods and compositions” (priority 2001, published 2003)", "molecules": {"B1": {"name": "fullerene-specific antibody: monoclonal antibody produced by hybridoma 1-10F-8A (ATCC PTA-279) (antibody, V domains shown)", "VH": "MGCSWGMLFLLSITAGVHCQVHLQQSGPELVRPGASVKISCKTSGYVFSSSWMNWVKQRPGQGLKWIGRIYPGNGNTNYNEKFKGKATLTADKSSNTAYMQLSSLTSVDSAVYFCATSSAYWGQGTLLTVSA", "VL": "DIQMTQTTSSLSASLGDRVTFSCSASQDINNYLNWYQQKPDGTIKLLIYYTSSLRSGVPSRFSGSGSGTDYSLTINNLEPEDIATYFCQQYSRLPFTFGSGTKLEIKRK", "modifications": "Mouse [murine]; Mouse"}}, "key": {"[1]": {"system": "anti-fullerene antibodies (immune serum)", "assay": "Specificity of the immune response by double diffusion in agar", "format": "binding, mouse", "experimental": "(§1) Specificity of the response was determined by two procedures: double diffusion in agar (22) and competitive inhibition, as determined by ELISA using RSA and BSA conjugates of the fullerenes, as well as the oligo lysine derivatives. The fullerenes themselves were not soluble enough in aqueous solutions.\nSpecificity of the immune response first was determined by double diffusion in agar.\nConfluent lines of precipitation were seen associated with wells 1-5 with a spur between wells 2 and 3, pointing toward 3, i.e., toward 1-BSA. This finding is evidence of a population of antibodies reactive with both 1 and 2, with an additional population specific for the carrier protein of the immunogen, 1-TG. The identity of precipitation with 1 and 2 is evidence for the lack of participation of the linker group, which is missing from 2. […] Anti-TG also could be detected by ELISA (below)."}, "[2]": {"system": "anti-fullerene antibodies binding to 1-RSA", "assay": "ELISA inhibition of antibody binding to 1-RSA", "set-up": "species or system mouse", "experimental": "After a total of three immunizations at 3-week intervals, confirmation of an immune response was determined by direct ELISA in which polystyrene plates (Corning) were coated with the 1-RSA conjugate (0.5 mg/ml in 0.1 M NaHCO3, pH 9), and binding of preimmune and immune sera were determined by standard procedures. Development was with horseradish peroxidase-labeled goat anti-mouse IgG (Sigma), which tested negative for crossreaction with an IgM preparation. The substrate used was o-phenylenediamine.\nas §1\nThe adenosine conjugate had been synthesized using the same strategy used for the fullerenes, i.e., linkage to the epsilon amino groups of the lysines via an N-hydroxysuccinimide ester derivative.\nSpecificity also was determined by ELISA inhibition studies (FIG. 6). Binding to 1-RSA was inhibited by 1-RSA, 1-BSA, 1-TG, 3-pentalysine, 2-pentalysine, and 1-pentalysine. Inhibition by 2-pentalysine is additional evidence for nonparticipation of the linker group, i.e., specificity for the C60 moiety. […]"}, "human keratinocytes": {"system": "human keratinocytes", "conditions": "after 6 hours; 32,000 dpm, 1.3 μM; cited from earlier work"}, "[3]": {"system": "human keratinocytes and fibroblasts", "conditions": "C60 suspension; cited from earlier work"}, "Air sensitivity": {"assay": "Air sensitivity", "format": "physicochemical", "text": "While previous work reported in the literature performed HPLC under aerobic conditions, (see for example Funasaka et al. 1995) these studies determined that anaerobic controls better preserved the fraction of Gd@C82 in solution. […] The fraction containing the Gd@C82 was identified using MS. The solubility of fullerenes in o-xylene is about three times that of toluene and this greatly increases the ratio of fullerenes in solution to those retained on the stationary phase. Therefore, the capacity or amount of fullerenes purified per injection was very large. Each injection contained 2 ml of saturated fullerene o-xylene solution (about 30 mg of fullerenes)."}, "[4]": {"assay": "Atomic force microscopy of antibody binding to SWNT", "experimental": "C60 Antibodies on SWNTs were directly imaged by atomic force microscopy. SWNT ropes on mica were initially imaged, the surface was then exposed to antibody solution, and finally; the same SWNT was imaged again in air. This sequence distinguishes any preexisting surface particles from bound antibodies. Three drops of aqueous SWNT suspension (0.064 mg/mL in Triton 100×surfactant, from Tubes@Rice) were spun onto a freshly cleaved mica surface. One drop of fullerene-specific antibody(0.00125 mg/mL in 10 mM phosphate buffer, 150 mM NaCl, pH 7.3) was then deposited onto the surface. Liquid was removed by glass piper after 8 min, and the sample was dried in air. The sample was then washed with 60 drops of water while spinning to remove weakly bound, physisorbed antibody layers. The same SWNT was then imaged in FIG. 24. A significant number of objects are adsorbed on the nanotube, in previously clean regions, and on the mica substrate. […] The mica antibody images are similar in height, width, and dimpled appearance to those previously reported for monoclonal mouse IgG1 on mica (10).\nIn a separate experiment, we mixed an aqueous SWNT suspension with an anti-fullerene antibody solution and then imaged the SWNTs on mica. One drop of antibody solution (0.25 mg/mL) was mixed with 5 mL of SWNT suspension (0.064 mg/ml) and cooled at 5° C. for 2 h. Three drops of this mixture were spun on a freshly cleaved […] and imaged without washing."}}, "note": "Where two headings read alike, the source gives them in different places."}
{"molecule": "bovine thyroglobulin [TG]", "values": [{"measurement": "precipitation in double diffusion in agar", "setting": "[1]; TG solution diluted 5-fold", "value": "line of precipitation was seen"}, {"measurement": "precipitation in double diffusion in agar", "setting": "[1]; undiluted antigen solutions", "value": "no visible precipitate"}, {"measurement": "inhibition of binding to 1-RSA (ELISA)", "setting": "[2]", "value": "No inhibition"}]}
{"molecule": "rabbit serum albumin [RSA]", "values": [{"measurement": "inhibition of binding to 1-RSA (ELISA)", "setting": "[2]", "value": "No inhibition"}]}
{"molecule": "c12c3c4c5c1c1c6c7c2c2c8c3c3c9c4c4c%10c5c5c1c1c6c6c%11c7c2c2c7c8c3c3c8c9c4c4c9c%10c5c5c1c1c6c6c%11c2c2c7c3c3c8c4c4c9c5c1c1c6c2c3c41", "note": "[Compound C60, fullerene-C60]", "values": [{"measurement": "applied radioactivity taken up by the keratinocytes", "setting": "human keratinocytes", "value": "approximately 50%"}, {"measurement": "effect on the rate of thymidine uptake", "setting": "[3]", "value": "no effect"}]}
{"molecule": "Gd@C82(OH)x", "values": [{"measurement": "air sensitivity", "setting": "Air sensitivity", "value": "does not appear to be air sensitive"}]}
{"molecule": "B1", "values": [{"measurement": "binding of antibody to SWNT (AFM image)", "setting": "[4]", "value": "antibodies on the nanotube and on mica"}, {"measurement": "binding of antibody to SWNT (AFM image)", "setting": "[4]; listed as anti-fullerene/anti-nanotube antibody", "value": "bound to a nanotube"}, {"measurement": "binding of antibody to SWNT (AFM image)", "setting": "[4]; listed as monoclonal IgG C60-specific antibody", "value": "specifically binds"}]}
